Measured values from patent US10597388B2, “Pyridazinone herbicides” (FMC CORPORATION, priority 2014, dated 2020).

Tests used:
Assay type in all cases: in vivo
[1] = system: wheat (Triticum aestivum); assay: Test A greenhouse herbicide test, pre- and postemergence; conditions: Postemergence; for Wheat plant response rating: 0 to 100 scale, 0 is no effect, 100 is complete control
Source text: (§1) Seeds of plant species selected from barnyardgrass (Echinochloa crus-galli), kochia (Kochia scoparia), ragweed (common ragweed, Ambrosia elatior), ryegrass, Italian (Italian ryegrass, Lolium multiflorum), crabgrass, large (large crabgrass, Digitaria sanguinalis), foxtail, giant (giant foxtail, Setaria faberii), momingglory (Ipomoea spp.), pigweed (Amaranthus retroflexus), velvetleaf (Abutilon theophrasti), wheat (Triticum aestivum), and corn (Zea mays) were planted into a blend of loam soil and sand and treated preemergence with a directed soil spray using test chemicals formulated in a non-phytotoxic solvent mixture which included a surfactant.
(§2) At the same time, plants selected from these crop and weed species and also blackgrass (Alopecurus myosuroides), and galium (catchweed bedstraw, Galium aparine) were planted in pots containing the same blend of loam soil and sand and treated with postemergence applications of test chemicals formulated in the same manner. Plants ranged in height from 2 to 10 cm and were in the one- to two-leaf stage for the postemergence treatment. Treated plants and untreated controls were maintained in a greenhouse for approximately 10 d, after which time all treated plants were compared to untreated controls and visually evaluated for injury. Plant response ratings, summarized in Table A, are based on a 0 to 100 scale where 0 is no effect and 100 is complete control. A dash (-) response means no test result.

[2] = system: barnyardgrass (Echinochloa crus-galli); assay: as above
Source text: as §1, §2

[3] = system: pigweed (Amaranthus retroflexus); assay: as above
Source text: as §1, §2

[4] = system: ragweed (common ragweed, Ambrosia elatior); assay: as above
Source text: as §1, §2

kochia (Kochia scoparia) = assay: as above
Source text: as §1, §2

[5] = system: foxtail, giant (giant foxtail, Setaria faberii); assay: as above
Source text: as §1, §2

corn (Zea mays) = assay: as above; conditions: Postemergence; for Corn plant response rating: 0 to 100 scale, 0 is no effect, 100 is complete control
Source text: as §1, §2

[6] = system: ryegrass, Italian (Italian ryegrass, Lolium multiflorum); assay: as above
Source text: as §1, §2

[7] = system: galium (catchweed bedstraw, Galium aparine); assay: Test A greenhouse herbicide test, postemergence; conditions: for Galium plant response rating: 0 to 100 scale, 0 is no effect, 100 is complete control
Source text: as §2

[8] = system: blackgrass (Alopecurus myosuroides); assay: Test A greenhouse herbicide test, postemergence; conditions: for Blackgrass plant response rating: 0 to 100 scale, 0 is no effect, 100 is complete control
Source text: as §2

[9] = 125 g ai/ha, 0 to 100 scale where 0 is no effect and 100 is complete control
[10] = Postemergence, 125 g ai/ha, 0 to 100 scale where 0 is no effect and 100 is complete control
[11] = Postemergence, 500 g ai/ha, 0 to 100 scale, 0 is no effect, 100 is complete control
[12] = Preemergence, 125 g ai/ha, 0 to 100 scale where 0 is no effect and 100 is complete control
[13] = Preemergence, 500 g ai/ha, 0 to 100 scale, 0 no effect, 100 complete control
[14] = Preemergence, 500 g ai/ha, 0 to 100 scale where 0 is no effect and 100 is complete control
[15] = 500 g ai/ha, visual rating after approx. 10 d, 0 to 100 scale (0 no effect, 100 complete control)
[16] = Postemergence, 500 g ai/ha, visual rating after approx. 10 d, 0 to 100 scale (0 no effect, 100 complete control)
[17] = Postemergence, 1000 g ai/ha, 0 to 100 scale, 0 is no effect, 100 is complete control
[18] = Preemergence, 1000 g ai/ha, 0 to 100 scale, 0 no effect, 100 complete control

CCc1ccc2ccccc2c1-c1c(OC(=O)OC(C)C)c(C)nn(C)c1=O [Compound 39]
30: Plant response rating, Kochia (kochia (Kochia scoparia); [10]) | Kochia plant response rating (kochia (Kochia scoparia); [11]) | Plant response rating, Blackgrass [8, 9]
90: Ragweed plant response rating [4, 11] | Plant response rating, Ryegrass, Italian [6, 10] | Plant response rating, Galium [7, 9]
50: Plant response rating, Pigweed [3, 10] | Plant response rating, Ragweed [4, 10] | Plant response rating, Ryegrass, Italian [6, 13]
10: Wheat plant response rating ([1]; 500 g ai/ha) | Barnyardgrass plant response rating [2, 11] | Plant response rating, Barnyardgrass [2, 13] | Ragweed plant response rating [4, 12]
60: Foxtail, Giant plant response rating [5, 11] | Plant response rating, Foxtail, Giant [5, 13] | Ryegrass, Italian plant response rating [6, 11]
40: Ryegrass, Italian plant response rating [6, 12]
80: Pigweed plant response rating [3, 11] | Pigweed plant response rating [3, 12] | Plant response rating, Pigweed [3, 13]
100: Galium plant response rating ([7]; 500 g ai/ha)
70: Plant response rating, Ragweed [4, 13] | Blackgrass plant response rating ([8]; 500 g ai/ha)
0: Plant response rating, Wheat [1, 9] | Plant response rating, Barnyardgrass [2, 10] | Barnyardgrass plant response rating [2, 12] | Kochia plant response rating (kochia (Kochia scoparia); [12]) | Plant response rating, Kochia (kochia (Kochia scoparia); [13]) | Plant response rating, Foxtail, Giant [5, 10] | Foxtail, Giant plant response rating [5, 12] | Plant response rating, Corn (corn (Zea mays); [9]) | Corn plant response rating (corn (Zea mays); 500 g ai/ha)

Cc1ccc2ccccc2c1-c1c(OC(=O)C2CC2)c(C)nn(C)c1=O [Compound 76]
20: Pigweed plant response rating [3, 11] | Pigweed plant response rating [3, 12] | Ragweed plant response rating [4, 11] | Plant response rating, Kochia (kochia (Kochia scoparia); [10]) | Foxtail, Giant plant response rating [5, 11] | Plant response rating, Foxtail, Giant [5, 14]
70: Plant response rating, Ryegrass, Italian [6, 14] | Plant response rating, Galium [7, 9]
50: Plant response rating, Pigweed [3, 14] | Plant response rating, Ragweed [4, 14] | Ryegrass, Italian plant response rating [6, 12]
80: Ryegrass, Italian plant response rating [6, 11] | Galium plant response rating ([7]; 500 g ai/ha)
0: Plant response rating, Wheat [1, 9] | Wheat plant response rating ([1]; 500 g ai/ha) | Plant response rating, Barnyardgrass [2, 10] | Barnyardgrass plant response rating [2, 12] | Plant response rating, Ragweed [4, 10] | Ragweed plant response rating [4, 12] | Kochia plant response rating (kochia (Kochia scoparia); [12]) | Plant response rating, Kochia (kochia (Kochia scoparia); [14]) | Plant response rating, Foxtail, Giant [5, 10] | Foxtail, Giant plant response rating [5, 12] | Plant response rating, Corn (corn (Zea mays); [9]) | Corn plant response rating (corn (Zea mays); 500 g ai/ha) | Plant response rating, Blackgrass [8, 9]
30: Barnyardgrass plant response rating [2, 11] | Plant response rating, Barnyardgrass [2, 13]
40: Kochia plant response rating (kochia (Kochia scoparia); [11]) | Plant response rating, Ryegrass, Italian [6, 10]
10: Plant response rating, Pigweed [3, 10] | Blackgrass plant response rating ([8]; 500 g ai/ha)

COc1nn(C)c(=O)c(-c2c(C)sc3ccccc23)c1OC(C)=O [Compound 141]
80: Plant response rating, Ryegrass, Italian [6, 14]
40: Pigweed plant response rating [3, 12] | Plant response rating, Ragweed [4, 16]
70: Plant response rating, Foxtail, Giant [5, 16] | Plant response rating, Foxtail, Giant [5, 14] | Plant response rating, Ryegrass, Italian [6, 10] | Plant response rating, Galium [7, 9]
50: Plant response rating, Barnyardgrass [2, 16] | Barnyardgrass plant response rating [2, 12] | Plant response rating, Blackgrass [8, 15]
60: Plant response rating, Pigweed [3, 14] | Plant response rating, Ragweed [4, 10] | Plant response rating, Ragweed [4, 14] | Plant response rating, Kochia (kochia (Kochia scoparia); [14])
90: Plant response rating, Barnyardgrass [2, 14] | Plant response rating, Ryegrass, Italian [6, 16] | Plant response rating, Galium [7, 15]
10: Plant response rating, Kochia (kochia (Kochia scoparia); [10])
0: Plant response rating, Wheat [1, 9] | Plant response rating, Wheat [1, 15] | Plant response rating, Pigweed [3, 10] | Kochia plant response rating (kochia (Kochia scoparia); [12]) | Plant response rating, Corn (corn (Zea mays); [9]) | Plant response rating, Corn (corn (Zea mays); [15]) | Plant response rating, Blackgrass [8, 9]
30: Plant response rating, Pigweed [3, 16] | Plant response rating, Kochia (kochia (Kochia scoparia); [16]) | Foxtail, Giant plant response rating [5, 12]
20: Plant response rating, Barnyardgrass [2, 10] | Plant response rating, Foxtail, Giant [5, 10]

CC(=O)COc1c(C)nn(C)c(=O)c1-c1cccc2ccccc12 [Compound 178]
60: Ragweed plant response rating [4, 17] | Plant response rating, Ryegrass, Italian [6, 18]
0: Wheat plant response rating ([1]; 1000 g ai/ha) | Barnyardgrass plant response rating [2, 17] | Plant response rating, Barnyardgrass [2, 18] | Plant response rating, Pigweed [3, 18] | Plant response rating, Ragweed [4, 18] | Plant response rating, Kochia (kochia (Kochia scoparia); [18]) | Foxtail, Giant plant response rating [5, 17] | Plant response rating, Foxtail, Giant [5, 18] | Corn plant response rating (corn (Zea mays); 1000 g ai/ha)
30: Blackgrass plant response rating ([8]; 1000 g ai/ha)
10: Kochia plant response rating (kochia (Kochia scoparia); [17])
70: Pigweed plant response rating [3, 17] | Ryegrass, Italian plant response rating [6, 17] | Galium plant response rating ([7]; 1000 g ai/ha)

COC(=O)COc1c(C)nn(C)c(=O)c1-c1cccc2ccccc12 [Compound 182]
0: Wheat plant response rating ([1]; 1000 g ai/ha) | Barnyardgrass plant response rating [2, 17] | Plant response rating, Barnyardgrass [2, 18] | Pigweed plant response rating [3, 17] | Plant response rating, Pigweed [3, 18] | Plant response rating, Ragweed [4, 18] | Kochia plant response rating (kochia (Kochia scoparia); [17]) | Plant response rating, Kochia (kochia (Kochia scoparia); [18]) | Foxtail, Giant plant response rating [5, 17] | Plant response rating, Foxtail, Giant [5, 18] | Corn plant response rating (corn (Zea mays); 1000 g ai/ha) | Ryegrass, Italian plant response rating [6, 17] | Plant response rating, Ryegrass, Italian [6, 18]
30: Ragweed plant response rating [4, 17]
10: Blackgrass plant response rating ([8]; 1000 g ai/ha)
50: Galium plant response rating ([7]; 1000 g ai/ha)
